What was measured:
[1] = Volume of distribution at steady state in dog at 1 mg/kg, iv; type: ADME, organism-based, Canis lupus familiaris; set-up: dose 1 mg/kg, route intravenous; conditions: in vivo, read-out: Vdss
[2] = test system: Human immunodeficiency virus 1; test: Antiviral activity against recombinant HIV1 virus infected in human JC53BL cells after 3 days; type: functional, organism-based; conditions: Human immunodeficiency virus 1, JC53BL, 72 h
[3] = Fraction unbound in dog plasma; type: ADME, cell-free, Canis lupus familiaris
Cytochrome P450 3A4 = Cytochrome P450 3A4 (Homo sapiens, UniProt P08684); test: Inhibition of liver CYP3A4; type: ADME, tissue-based
[4] = Oral bioavailability in rat at 1 mg/kg, po; type: ADME, organism-based; conditions: in vivo
Cytochrome P450 1A2 = biological target: T1, Cytochrome P450 1A2 (Homo sapiens, UniProt P05177); test: Inhibition of liver CYP1A2; type: ADME, tissue-based
T1 sequence (P05177 whole entry): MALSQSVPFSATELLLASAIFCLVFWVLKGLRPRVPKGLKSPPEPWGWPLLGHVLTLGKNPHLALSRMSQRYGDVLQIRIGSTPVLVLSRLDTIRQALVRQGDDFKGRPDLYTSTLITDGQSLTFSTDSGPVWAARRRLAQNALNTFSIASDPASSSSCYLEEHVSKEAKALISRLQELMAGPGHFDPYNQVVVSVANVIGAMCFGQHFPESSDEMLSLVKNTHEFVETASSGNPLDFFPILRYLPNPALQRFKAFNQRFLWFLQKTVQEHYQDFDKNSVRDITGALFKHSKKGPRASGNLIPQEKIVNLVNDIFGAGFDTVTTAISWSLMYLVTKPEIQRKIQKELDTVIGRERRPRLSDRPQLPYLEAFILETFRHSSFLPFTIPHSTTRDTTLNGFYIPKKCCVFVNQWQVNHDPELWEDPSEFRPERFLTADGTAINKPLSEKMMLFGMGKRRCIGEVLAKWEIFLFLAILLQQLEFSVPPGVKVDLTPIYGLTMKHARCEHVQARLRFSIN

[5] = biological target: T2, C-C chemokine receptor type 3 (Homo sapiens, UniProt P51677); test: Binding affinity to human CCR3 receptor
T2 sequence (P51677 whole entry): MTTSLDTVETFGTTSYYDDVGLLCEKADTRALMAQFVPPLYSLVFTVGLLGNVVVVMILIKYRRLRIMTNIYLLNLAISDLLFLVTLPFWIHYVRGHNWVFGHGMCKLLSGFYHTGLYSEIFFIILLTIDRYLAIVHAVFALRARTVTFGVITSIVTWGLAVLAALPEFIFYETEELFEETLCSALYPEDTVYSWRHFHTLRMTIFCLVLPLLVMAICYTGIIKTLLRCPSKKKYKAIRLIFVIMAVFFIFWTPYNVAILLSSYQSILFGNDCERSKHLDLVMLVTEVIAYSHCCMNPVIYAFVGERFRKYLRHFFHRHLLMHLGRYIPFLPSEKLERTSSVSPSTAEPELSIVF

Canis familiaris = test: Clearance in dog at 1 mg/kg, iv; type: ADME, organism-based, Canis lupus familiaris; set-up: dose 1 mg/kg, route intravenous; conditions: in vivo
[6] = Oral bioavailability in dog at 1 mg/kg, po; type: ADME, organism-based, Canis lupus familiaris; conditions: in vivo
[7] = biological target: T3, C-C chemokine receptor type 4 (Homo sapiens, UniProt P51679); test: Binding affinity to human CCR4 receptor
T3 sequence (P51679 whole entry): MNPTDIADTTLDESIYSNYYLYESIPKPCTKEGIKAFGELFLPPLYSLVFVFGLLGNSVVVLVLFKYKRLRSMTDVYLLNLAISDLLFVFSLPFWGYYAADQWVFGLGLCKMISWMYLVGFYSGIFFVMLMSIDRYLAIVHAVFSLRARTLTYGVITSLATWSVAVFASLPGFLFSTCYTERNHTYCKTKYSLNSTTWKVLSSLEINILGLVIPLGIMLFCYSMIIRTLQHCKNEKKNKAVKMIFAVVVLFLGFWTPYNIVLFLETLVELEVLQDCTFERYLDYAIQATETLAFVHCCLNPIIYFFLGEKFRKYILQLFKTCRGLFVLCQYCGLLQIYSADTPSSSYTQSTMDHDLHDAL

[8] = biological target: C-C chemokine receptor type 5 (Homo sapiens, UniProt P51681); test: Displacement of [125I]RANTES from human CCR5 receptor co-transfected with Galphai6 in CHO cells; type: cell-based
[9] = Fraction unbound in rat plasma; type: ADME, cell-free
Cytochrome P450 2D6 = Cytochrome P450 2D6 (Homo sapiens, UniProt P10635); test: Inhibition of liver CYP2D6; type: ADME, tissue-based
[10] = Half life in dog at 1 mg/kg, iv; type: ADME, organism-based, Canis lupus familiaris; set-up: dose 1 mg/kg, route intravenous; conditions: in vivo
[11] = biological target: C-X-C chemokine receptor type 4 (Homo sapiens, UniProt P61073); test: Binding affinity to human CXCR4
Cytochrome P450 2C9 = Cytochrome P450 2C9 (Homo sapiens, UniProt P11712); test: Inhibition of liver CYP2C9; type: ADME, tissue-based
[12] = Clearance in cynomolgus monkey at 1 mg/kg, iv; type: ADME, organism-based, Macaca fascicularis; set-up: dose 1 mg/kg, route intravenous; conditions: in vivo
[13] = Intrinsic clearance in human liver microsomes assessed per mg of protein; type: ADME, Microsome; conditions: liver microsomes
[14] = test system: Human immunodeficiency virus; test: Antiviral activity against R5-tropic HIV Ba-L infected in human PBMC cells assessed as inhibition of viral replication; type: functional, organism-based; conditions: Human immunodeficiency virus 1, Ba-L
[15] = AUC in cynomolgus monkey at 1 mg/kg, po; type: ADME, organism-based, Macaca fascicularis; set-up: dose 1 mg/kg, route oral; conditions: plasma
[16] = Volume of distribution at steady state in rat at 1 mg/kg, iv; type: ADME, organism-based; set-up: dose 1 mg/kg, route intravenous; conditions: in vivo, read-out: Vdss
[17] = Oral bioavailability in cynomolgus monkey at 1 mg/kg, po; type: ADME, organism-based, Macaca fascicularis; conditions: in vivo
[18] = biological target: T4, C-C chemokine receptor type 1 (Homo sapiens, UniProt P32246); test: Binding affinity to human CCR1 receptor
T4 sequence (P32246 whole entry): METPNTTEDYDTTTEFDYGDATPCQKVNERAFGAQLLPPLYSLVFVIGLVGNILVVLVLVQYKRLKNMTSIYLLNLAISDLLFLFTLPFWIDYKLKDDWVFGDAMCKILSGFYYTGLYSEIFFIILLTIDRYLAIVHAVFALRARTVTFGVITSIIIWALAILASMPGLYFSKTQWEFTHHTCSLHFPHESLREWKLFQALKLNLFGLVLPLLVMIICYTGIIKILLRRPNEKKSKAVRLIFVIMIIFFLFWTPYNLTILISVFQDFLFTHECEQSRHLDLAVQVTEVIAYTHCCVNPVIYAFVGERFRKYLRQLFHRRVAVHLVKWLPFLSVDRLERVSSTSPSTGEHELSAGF

[19] = Cmax in dog at 1 mg/kg, po; type: ADME, organism-based, Canis lupus familiaris; set-up: dose 1 mg/kg, route oral; conditions: in vivo
[20] = AUC in rat at 1 mg/kg, po; type: ADME, organism-based; set-up: dose 1 mg/kg, route oral; conditions: plasma
[21] = Clearance in rat at 1 mg/kg, iv; type: ADME, organism-based; set-up: dose 1 mg/kg, route intravenous; conditions: in vivo
Cytochrome P450 2C19 = Cytochrome P450 2C19 (Homo sapiens, UniProt P33261); test: Inhibition of liver CYP2C19; type: ADME, tissue-based
[22] = Half life in cynomolgus monkey at 1 mg/kg, iv; type: ADME, organism-based, Macaca fascicularis; set-up: dose 1 mg/kg, route intravenous; conditions: in vivo
[23] = AUC in dog at 1 mg/kg, po; type: ADME, organism-based, Canis lupus familiaris; set-up: dose 1 mg/kg, route oral; conditions: plasma
[24] = Half life in rat at 1 mg/kg, iv; type: ADME, organism-based; set-up: dose 1 mg/kg, route intravenous; conditions: in vivo
[25] = Cmax in rat at 1 mg/kg, po; type: ADME, organism-based; set-up: dose 1 mg/kg, route oral; conditions: in vivo
[26] = Volume of distribution at steady state in cynomolgus monkey at 1 mg/kg, iv; type: ADME, organism-based, Macaca fascicularis; set-up: dose 1 mg/kg, route intravenous; conditions: in vivo, read-out: Vdss
[27] = biological target: T5, C-C chemokine receptor type 6 (Homo sapiens, UniProt P51684); test: Binding affinity to human CCR6 receptor
T5 sequence (P51684 whole entry): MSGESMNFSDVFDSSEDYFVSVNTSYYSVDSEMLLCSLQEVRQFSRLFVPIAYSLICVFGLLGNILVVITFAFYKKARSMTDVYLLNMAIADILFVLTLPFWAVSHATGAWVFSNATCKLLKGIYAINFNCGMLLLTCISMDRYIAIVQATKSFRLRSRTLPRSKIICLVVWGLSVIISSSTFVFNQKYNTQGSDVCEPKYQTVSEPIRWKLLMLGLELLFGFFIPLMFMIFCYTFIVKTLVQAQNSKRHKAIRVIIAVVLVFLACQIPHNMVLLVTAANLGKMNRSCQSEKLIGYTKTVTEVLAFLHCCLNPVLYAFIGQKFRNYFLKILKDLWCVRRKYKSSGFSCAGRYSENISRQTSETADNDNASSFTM

[28] = biological target: C-C chemokine receptor type 2 (Homo sapiens, UniProt P41597); test: Binding affinity to human CCR2b receptor
[29] = Cmax in cynomolgus monkey at 1 mg/kg, po; type: ADME, organism-based, Macaca fascicularis; set-up: dose 1 mg/kg, route oral; conditions: in vivo
[30] = Fraction unbound in monkey plasma; type: ADME, cell-free, Macaca mulatta; conditions: rhesus monkey
[31] = biological target: Voltage-gated inwardly rectifying potassium channel KCNH2 (Homo sapiens, UniProt Q12809); test: (§1) Inhibition of human ERG
hERG (KCNH2) = hERG (KCNH2) (Homo sapiens, UniProt Q12809); test: as §1; conditions: human
hERG (KCNH2), sequence (Q12809 whole entry): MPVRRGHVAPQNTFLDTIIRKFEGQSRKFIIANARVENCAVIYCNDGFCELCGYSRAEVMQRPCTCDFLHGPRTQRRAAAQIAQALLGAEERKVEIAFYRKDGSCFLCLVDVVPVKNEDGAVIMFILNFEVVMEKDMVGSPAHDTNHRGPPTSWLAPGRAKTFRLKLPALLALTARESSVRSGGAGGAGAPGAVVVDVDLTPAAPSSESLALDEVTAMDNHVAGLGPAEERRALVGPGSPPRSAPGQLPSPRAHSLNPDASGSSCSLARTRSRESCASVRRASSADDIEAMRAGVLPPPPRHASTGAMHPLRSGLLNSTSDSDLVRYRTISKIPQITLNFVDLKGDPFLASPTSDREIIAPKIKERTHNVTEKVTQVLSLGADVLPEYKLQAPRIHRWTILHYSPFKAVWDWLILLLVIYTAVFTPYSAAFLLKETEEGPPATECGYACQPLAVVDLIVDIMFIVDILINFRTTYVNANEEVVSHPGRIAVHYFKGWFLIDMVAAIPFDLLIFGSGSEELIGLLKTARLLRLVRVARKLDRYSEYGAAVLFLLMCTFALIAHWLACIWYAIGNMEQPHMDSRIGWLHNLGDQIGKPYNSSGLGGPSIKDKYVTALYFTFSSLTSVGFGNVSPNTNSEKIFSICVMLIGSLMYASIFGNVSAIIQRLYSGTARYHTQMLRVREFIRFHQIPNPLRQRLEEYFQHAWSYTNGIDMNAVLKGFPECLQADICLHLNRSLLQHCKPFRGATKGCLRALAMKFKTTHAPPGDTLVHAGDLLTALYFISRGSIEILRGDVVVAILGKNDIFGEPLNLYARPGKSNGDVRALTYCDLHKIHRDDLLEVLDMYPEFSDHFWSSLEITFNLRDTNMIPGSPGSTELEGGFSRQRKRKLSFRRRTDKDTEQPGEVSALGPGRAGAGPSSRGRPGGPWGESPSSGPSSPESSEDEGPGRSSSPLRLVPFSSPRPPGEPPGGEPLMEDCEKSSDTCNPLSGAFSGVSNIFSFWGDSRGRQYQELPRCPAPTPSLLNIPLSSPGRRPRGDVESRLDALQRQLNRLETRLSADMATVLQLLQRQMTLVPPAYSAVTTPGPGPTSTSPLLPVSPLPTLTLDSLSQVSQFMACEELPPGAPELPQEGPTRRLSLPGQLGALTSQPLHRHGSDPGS

Voltage-gated inwardly rectifying potassium channel KCNH2, sequence (Q12809 whole entry): as above
C-C chemokine receptor type 5, sequence (P51681 whole entry): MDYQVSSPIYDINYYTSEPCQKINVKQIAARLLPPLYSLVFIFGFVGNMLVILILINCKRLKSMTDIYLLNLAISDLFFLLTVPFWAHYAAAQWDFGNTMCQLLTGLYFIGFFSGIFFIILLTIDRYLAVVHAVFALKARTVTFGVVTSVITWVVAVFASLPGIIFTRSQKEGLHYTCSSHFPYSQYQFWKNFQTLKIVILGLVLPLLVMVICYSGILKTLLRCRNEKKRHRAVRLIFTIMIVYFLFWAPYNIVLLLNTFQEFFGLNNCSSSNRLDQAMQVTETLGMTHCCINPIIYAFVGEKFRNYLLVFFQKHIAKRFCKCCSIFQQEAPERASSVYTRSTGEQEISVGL
Cytochrome P450 2C9, sequence (P11712 whole entry): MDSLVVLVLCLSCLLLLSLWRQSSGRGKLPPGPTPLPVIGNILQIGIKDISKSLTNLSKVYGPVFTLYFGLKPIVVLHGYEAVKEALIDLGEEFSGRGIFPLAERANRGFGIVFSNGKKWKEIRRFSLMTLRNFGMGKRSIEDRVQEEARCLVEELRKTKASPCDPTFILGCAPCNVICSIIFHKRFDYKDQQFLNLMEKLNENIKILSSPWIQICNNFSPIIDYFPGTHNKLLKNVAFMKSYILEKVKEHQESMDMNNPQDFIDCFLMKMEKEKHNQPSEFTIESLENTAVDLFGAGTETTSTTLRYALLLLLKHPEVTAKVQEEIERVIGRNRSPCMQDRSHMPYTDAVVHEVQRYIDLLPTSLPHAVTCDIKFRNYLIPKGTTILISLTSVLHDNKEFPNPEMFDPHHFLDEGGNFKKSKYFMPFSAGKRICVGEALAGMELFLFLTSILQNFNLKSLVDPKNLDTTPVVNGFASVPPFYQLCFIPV
C-X-C chemokine receptor type 4, sequence (P61073 whole entry): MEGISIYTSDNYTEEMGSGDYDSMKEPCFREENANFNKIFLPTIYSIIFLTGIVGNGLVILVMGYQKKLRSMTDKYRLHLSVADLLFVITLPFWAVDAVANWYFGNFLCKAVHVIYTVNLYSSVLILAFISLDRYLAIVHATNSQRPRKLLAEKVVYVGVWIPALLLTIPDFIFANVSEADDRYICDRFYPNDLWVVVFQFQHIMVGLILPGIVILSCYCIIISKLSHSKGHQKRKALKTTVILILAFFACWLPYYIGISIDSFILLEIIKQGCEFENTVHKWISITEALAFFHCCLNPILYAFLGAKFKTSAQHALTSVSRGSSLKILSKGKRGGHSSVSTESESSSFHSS
C-C chemokine receptor type 2, sequence (P41597 whole entry): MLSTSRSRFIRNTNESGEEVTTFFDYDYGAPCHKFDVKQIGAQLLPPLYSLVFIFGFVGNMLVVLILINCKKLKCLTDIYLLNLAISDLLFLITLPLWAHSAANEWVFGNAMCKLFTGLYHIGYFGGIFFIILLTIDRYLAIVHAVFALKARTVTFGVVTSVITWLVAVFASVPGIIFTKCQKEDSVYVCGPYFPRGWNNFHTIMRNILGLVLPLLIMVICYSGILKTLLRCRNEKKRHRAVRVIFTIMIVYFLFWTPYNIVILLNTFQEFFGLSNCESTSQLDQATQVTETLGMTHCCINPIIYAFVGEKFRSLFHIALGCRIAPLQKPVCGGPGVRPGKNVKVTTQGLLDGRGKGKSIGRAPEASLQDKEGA
Cytochrome P450 2D6, sequence (P10635 whole entry): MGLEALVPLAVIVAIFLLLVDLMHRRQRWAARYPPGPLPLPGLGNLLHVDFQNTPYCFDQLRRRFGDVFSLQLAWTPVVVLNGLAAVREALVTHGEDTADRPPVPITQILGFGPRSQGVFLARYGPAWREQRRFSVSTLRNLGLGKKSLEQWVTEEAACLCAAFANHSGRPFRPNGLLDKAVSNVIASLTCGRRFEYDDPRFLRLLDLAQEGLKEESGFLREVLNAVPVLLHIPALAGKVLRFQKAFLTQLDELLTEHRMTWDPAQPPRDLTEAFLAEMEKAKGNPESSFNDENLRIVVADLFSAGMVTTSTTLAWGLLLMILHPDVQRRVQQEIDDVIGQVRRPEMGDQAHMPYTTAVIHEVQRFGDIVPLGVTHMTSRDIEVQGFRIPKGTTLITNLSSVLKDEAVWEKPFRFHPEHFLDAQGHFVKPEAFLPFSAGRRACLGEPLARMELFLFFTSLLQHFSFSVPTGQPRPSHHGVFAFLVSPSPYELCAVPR
Cytochrome P450 3A4, sequence (P08684 whole entry): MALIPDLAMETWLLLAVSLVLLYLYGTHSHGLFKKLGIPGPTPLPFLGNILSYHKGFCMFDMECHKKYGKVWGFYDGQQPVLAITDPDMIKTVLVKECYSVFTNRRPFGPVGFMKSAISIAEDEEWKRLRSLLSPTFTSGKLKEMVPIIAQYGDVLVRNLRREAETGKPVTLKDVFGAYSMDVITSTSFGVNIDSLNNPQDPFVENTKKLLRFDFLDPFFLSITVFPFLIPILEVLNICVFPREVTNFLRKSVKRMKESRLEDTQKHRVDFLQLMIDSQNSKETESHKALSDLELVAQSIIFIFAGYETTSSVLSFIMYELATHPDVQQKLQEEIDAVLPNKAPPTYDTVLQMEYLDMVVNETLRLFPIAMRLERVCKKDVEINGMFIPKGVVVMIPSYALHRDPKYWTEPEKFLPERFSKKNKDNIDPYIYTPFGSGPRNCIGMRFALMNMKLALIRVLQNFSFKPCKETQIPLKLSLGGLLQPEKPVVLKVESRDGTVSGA

CCCC[C@H]1CN(CC2CCOCC2)C(=O)OC12CCN(C1(C)CCN(C(=O)c3c(C)ncnc3C)CC1)CC2
Vd [1]: 3.2 L/kg | IC50 [2]: 0.006 µM | fraction unbound [3]: 0.13 | Activity (Cytochrome P450 3A4): Not Active | bioavailability [4]: 10% | Activity (Cytochrome P450 1A2): Not Active | IC50 [5]: > 50 µM | clearance (Canis familiaris): 20 mL/min/kg | bioavailability [6]: 85% | IC50 [7]: > 50 µM | IC50 [8]: 0.025 µM | fraction unbound [9]: 0.32 | Activity (Cytochrome P450 2D6): Not Active | half-life [10]: 2.9 h | IC50 [11]: > 50 µM | Activity (Cytochrome P450 2C9): Not Active | clearance [12]: 19 mL/min/kg | microsomal CLint [13]: 12 µL/min/mg | IC50 [14]: 0.00018 µM | AUC [15]: 396 ng·h/mL | Vd [16]: 3.8 L/kg | bioavailability [17]: 42% | IC50 [18]: > 50 µM | Cmax [19]: 225 ng/mL | AUC [20]: 54 ng·h/mL | clearance [21]: 52 mL/min/kg | Activity (Cytochrome P450 2C19): Not Active | half-life [22]: 3.5 h | AUC [23]: 700 ng·h/mL | half-life [24]: 1.4 h | Cmax [25]: 13 ng/mL | Vd [26]: 3 L/kg | IC50 [27]: > 50 µM | IC50 [28]: > 50 µM | Cmax [29]: 42 ng/mL | fraction unbound [30]: 0.04 | IC50 [31]: 11.9 µM | IC20 (hERG (KCNH2)): 2.9 µM
